Patent publication US20150299648A1, “IMPROVED CULTIVATION MEDIA AND PROCESS FOR IMPROVED PROTEIN PRODUCTION BY PICHIA STRAINS” (priority 2012, published 2015)
Entries after “also recorded” stand apart in the source; their conditions may differ.

How the values were obtained:
[1] = Osmolality of sugar and sugar alcohol solutions (osmometer); type: physicochemical; conditions: 500 mM in water
Experimental: The sugar and sugar alcohol solutions used as osmoprotectant supplements were prepared at 500 mM in water and their osmolalities were measured using Osmometer (Multi-somotte, Model 2430, Precision Systems Inc, MA, USA). The osmolality of solution was directly proportional to the concentration of component in solution. For instance there was a linear relationship between sorbitol concentration (mM) and osmolality of the solution (mOsm/kg) as shown in FIG. 1A. The osmolalities of maltitol, sorbitol, glycerol, and glucose at 500 mM in water were 590±4, 544±3, 541±3, and 568±0 mOsm/kg respectively (FIG. 1B). The osmolaties of sorbose, mellibiose, ribose, quinic acid and myo-inositol at 500 Mm in water were (480±5), (500±5), (470±5), (480±5) AND (510±10), respectively.

[2] = test system: P. pastrois strain yGLY21058; experiment: Fermentability of sugars or sugar alcohols on M agar plate; type: cell-based, Pichia pastoris; conditions: 6 days at 30° C.; for Growth on M agar: single carbon source 1% w/v; for Fermentability category from colony formation on the plate: minimal agar plate
Experimental: The 1 mL of RCB (Research Cell Bank in 20% of glycerol) for P. pastrois strain yGLY21058 producing glycosylated insulin precursor (GIP) was inoculated in 200 mL of Seed medium (4% glycerol, 1% yeast extract, 2% soytone, 1.34% YNB without amino acids, 0.23% K2HPO4, 1.19% KH2PO4, 8 μg/L biotin) and cultivated for 48 h at 24° C. The cell pellet was harvested by centrifugation at 4,000 rpm for 10 min and re-suspended with PBS buffer (pH 7.4) to wash the cell twice. The 0.1 mL of cell suspension with wash buffer was transferred and spread onto the minimal agar plate containing each sugar or sugar alcohol (1% w/v), which is listed in Table 1.
YPD (1% yeast extract, 2% yeast peptone, and 1% glucose) agar plate was used for the positive control and a minimal agar plate without carbon sources (M) was used for negative control. Growth of Pichia pastoris on M agar plate containing single carbon source was categorized as no (−), slow (+), moderate (++), and fast (+++) colony formation for 6 days in Table 1.

[3] = test system: P. pastoris YGLY21058 strain producing glycosylated insulin precursor (GIP); experiment: Screening of sugars and sugar alcohols as osmoprotectants in fed-batch cultivation; type: cell-based, Pichia pastoris; conditions: for Index of cell lysis (double stranded DNA released into culture medium): 50 g/L in initial batch BSGY, 80 h of induction; for Intact GIP molecule after 80 h-induction (SDS-PAGE): 50 g/L in initial batch medium of BSGY
Experimental: The P. pastoris YGLY21058 strain was cultivated in 1 L glass bioreactors (DASGIP, Germany). For fermentation in 1 L bioreactor, a vial (1 mL) of RCB (Research Cell Bank) was inoculated into 200 mL of Seed medium in 1 L-baffled flask. The culture incubated at 24° C., while shaking on an orbital shaker at 180 rpm for 48±4 h. The bioreactor was inoculated with a 10% volumetric ratio of seed to initial BSGY medium. Cultivation conditions were following: temperature set at 24±0.5° C., pH controlled at 6.5±0.1 with 30% ammonium hydroxide, dissolved oxygen was maintained at 20% of saturation by cascading agitation rate on the addition of pure oxygen to the fixed airflow rate of 0.7 vvm. After depletion of the initial glycerol (4%), a 50% glycerol solution containing 12.5 mL/L of PTM1 salts (6.5 g FeSO4.7H2O, 2.0 g ZnCl2, 0.6 g CuSO4.5H2O, 3.0 g MnSO4.7H2O, 0.5 g CoCl2.6H2O, 0.2 g NaMoO4.2H2O, 0.2 g biotin, 80 mg NaI, 20 mg H3BO4 per L) was fed constantly at an initial rate of 0.08 h^−1 for 8 h. Induction was initiated after a 30 min starvation phase when methanol was fed. Methanol was fed constantly starting at 1.33 g/L/h under methanol limited condition. Agitation speed was changed from cascade mode with agitation speed and pure oxygen.
For comparisons, each sugar or sugar alcohol was added at 50 g/L in initial batch medium of BSGY. In case of control without sugar supplementation (BSGY medium only), glycosylated insulin precursor (GIP) was detectable at 58 h of induction, but not detected at 80 h of induction due to most likely proteolytic degradation caused by heavy cell lysis (Lanes 1 and 2 of FIG. 2 A).

[4] = test system: P. pastoris YGLY 21058 strain; experiment: Fermentability of sorbitol and maltitol determined by HPLC; type: cell-based, Pichia pastoris; conditions: BSGY; maltitol 50 g/L; methanol induction phase
Experimental: The P. pastoris YGLY 21058 strain was cultivated in 1 L bioreactor and 50 g/L of maltitol was mixed in BSGY medium. The samples were taken at the beginning of fermentation, at the end of glycerol fed-batch before adding maltitol, and two different time-points in methanol induction phase, as shown in FIG. 3. The supernatant was separated by the centrifugation at 13,000 rpm for 1 minutes using micro-centrifuge. The samples properly diluted with distilled water were filtered using 0.2 μm-filter and the residual concentrations of sorbitol and maltitol were determined by HPLC using AMINEX HPX-87H column. The residence times (RTs) for sorbitol and maltitol were 11.5 and 9.3 min respectively. The data were shown in FIG. 3 as two independent runs of cultivation.

| Compound | Osmolality of solution [1] [mOsm/kg] | Growth on M agar [2] | Fermentability category from colony formation on the plate [2] | Index of cell lysis (double stranded DNA released into culture medium) [3] | Intact GIP molecule after 80 h-induction (SDS-PAGE) [3] | Robustness of Pichia production strains ([3]; methanol induction phase of cultivation) | Consumption / fermentability in fed-batch fermentation (residual concentration by HPLC) [4] |
| --- | --- | --- | --- | --- | --- | --- | --- |
| OCC(O)CO [Glycerol] | 541±3 | +++ |  |  |  |  |  |
| OC[C@H](O)C(O)[C@@H](O)CO [L-Arabitol] |  | − | strict non-fermentable substrates |  |  |  |  |
| O=C[C@H](O)[C@H](O)[C@H](O)CO [D-Ribose] | 470±5 | + | very slow colony formation | much lower than that of control | intact GIP molecule was maintained |  |  |
| OC[C@H]1O[C@H](O[C@H]2O[C@H](CO)[C@@H](O)[C@H](O)[C@H]2O)[C@H](O)[C@@H](O)[C@@H]1O [α,α-Trehalose] |  | ++ |  |  |  |  |  |
| OC[C@@H](O)[C@@H](O)[C@@H](O)CO [D-Ribitol] |  | − | strict non-fermentable substrates |  |  |  |  |
| O=C[C@H](O)[C@@H](O)[C@H](O)CO [D-Xylose] |  | + | very slow colony formation |  |  |  |  |
| O=C[C@H](O)[C@@H](O)[C@H](O)[C@H](O)CO [D-Glucose] | 568±0 | +++ |  |  |  |  |  |
| O[C@H]1[C@H](O)[C@@H](O)[C@H](O)[C@@H](O)[C@H]1O [myo-Inositol] | 510±10 | + | very slow colony formation | much lower than that of control | intact GIP molecule was maintained |  |  |
| OC[C@H]1O[C@H](O[C@H]2[C@H](O)[C@@H](O)[C@H](O)O[C@@H]2CO)[C@H](O)[C@@H](O)[C@@H]1O [D-Maltose] |  | − | strict non-fermentable substrates |  |  | significantly improved the robustness |  |
| OC[C@@H](O)[C@@H](O)[C@H](O)[C@@H](O)CO [D-Sorbitol] | 544±3 | +++ |  |  |  |  | actively metabolized; also recorded: highly fermentable |
| OC[C@H]1O[C@H](OC[C@H]2O[C@H](O[C@]3(CO)O[C@H](CO)[C@@H](O)[C@@H]3O)[C@H](O)[C@@H](O)[C@@H]2O)[C@H](O)[C@@H](O)[C@H]1O [D-Raffinose] |  | ++ |  |  |  |  |  |
| OC[C@H]1O[C@H](OCC2O[C@@H](O)[C@H](O)[C@@H](O)[C@@H]2O)[C@H](O)[C@@H](O)[C@H]1O (stereo partly drawn) [D-Melibiose] | 500±5 | + | very slow colony formation |  | intact GIP molecule was maintained |  |  |
| OC[C@@H](O)[C@H](O)[C@@H](O)CO [Xylitol] |  | − | strict non-fermentable substrates |  |  |  |  |
| Inulin |  | + | very slow colony formation |  |  |  |  |
| O=C1O[C@H](CO)[C@@H](O)[C@H](O)[C@H]1O [D-Glucono-1,5-lactone] |  | − | strict non-fermentable substrates |  |  |  |  |
| O=C(O)[C@]1(O)C[C@@H](O)[C@@H](O)[C@H](O)C1 [D-Quinic acid] | 480±5 | − | strict non-fermentable substrates |  |  |  |  |
| O=C(CO)[C@@H](O)[C@H](O)[C@@H](O)CO [L-Sorbose] | 480±5 | + | very slow colony formation |  | intact GIP molecule was maintained |  |  |
| O=C(O)[C@H](O)[C@@H](O)[C@H](O)[C@H](O)CO [D-Gluconate] |  | + | very slow colony formation |  |  |  |  |
| O=C[C@@H](O)[C@H](O)[C@H](O)CO [D-Arabinose] |  | − | strict non-fermentable substrates | much lower than that of control | intact GIP molecule was maintained |  |  |
